Patent US12690589B2, “Herbicidal compositions comprising pyroxasulfone” (BASF SE, priority 2024, dated 2026)

Columns and labels:
Assay in all cases: Post-emergence application in field trials, herbicidal activity (damage scale 0 to 100%)
Assay type in all cases: in vivo
[1] = tested on: Amaranthus retroflexus (AMARE); details: stage 31-49, height 10-12 cm
Protocol: (§1) In the examples below, using the method of S. R. Colby (1967) “Calculating synergistic and antagonistic responses of herbicide combinations”, Weeds 15, p. 22ff., the value E, which is expected if the activity of the individual active compounds is only additive, was calculated:
(§2) [formula] • wherein • X=percent activity using active herbicide A at an application rate a; • Y=percent activity using active herbicide B (e.g. pyroxasulfone) at an application rate b; • E=expected activity (in %) by A+B at application rates a+b.
(§3) For 3-component mixtures the synergistic response was calculated as described in: Ferry, Nancy; Stanley, Bruce H.; and Armel, Gregory (2005). “DESIGN AND ANALYSIS OF BIOLOGICAL ASSAYS OF MIXTURES,” Conference on Applied Statistics in Agriculture. https://doi.org/10.4148/2475-7772.1133. According to this publication, the Colby calculation can be generalized to a third mixing partner, Z, employing the following formula: […]
(§4) If the value found experimentally is higher than the value E calculated according to Colby, a synergistic effect is present.
(§5) On field test sites, natural weed infestation or seeded weeds were treated post-emergence of the weeds.
(§6) In the field trials, the weeds were treated as indicated below.
(§7) In the following experiments, the herbicidal activity for the individual herbicidal compositions (solo and mixture applications) was assessed at the indicated days after treatment (DAT). The assessments for the damage on undesired weeds caused by the composition was carried out using a scale from 0 to 100%, compared to the untreated control plants. Here, 0 means no damage and 100 means complete destruction of the plants.
(§8) Herbicide A-1 (342 g/l) and pyroxasulfone (500 g/l) were, together with addition of 0.25 v/v % MSO (methylated seed oil) as adjuvant, formulated in 200 l/ha water as distribution medium and sprayed with commercial flat fan nozzles.
(§9) Herbicide A-1 (342 g/l), pyroxasulfone (500 g/l) and trifludimoxazin (500 g/l) were, together with addition of 0.25 v/v % MSO (methylated seed oil) as adjuvant, formulated in 200 l/ha water as distribution medium and sprayed with commercial flat fan nozzles.
(§10) Herbicide A-1 (342 g/I), pyroxasulfone (500 g/l) and glyphosate-isopropylammonium (356 g/l) were, together with addition of 0.25 v/v % MSO (methylated seed oil) as adjuvant, formulated in 200 l/ha water as distribution medium and sprayed with commercial flat fan nozzles.
(§11) Herbicide A-1 (342 g/l), pyroxasulfone (500 g/l) and glufosinate-P-ammonium (211 g/l) were, together with addition of 0.25 v/v % MSO (methylated seed oil) as adjuvant, formulated in 200 l/ha water as distribution medium and sprayed with commercial flat fan nozzles.
(§12) Herbicide A-1 (342 g/l), pyroxasulfone (500 g/l) and 2,4-D-choline (456 g/l) were, together with addition of 0.25 v/v % MSO (methylated seed oil) as adjuvant, formulated in 200 l/ha water as distribution medium and sprayed with commercial flat fan nozzles.

[2] = tested on: Digitaria sanguinalis (DIGSA); details: stage 22, height 10-15 cm
Protocol: as §1, §2, §3, §4, §5, §6, §7, §8, §9, §10, §11, §12

[3] = tested on: Glycine max (GLXMA); details: 7 DAT; stage 12-13, height 7-11 cm; g ai/ha A-1 12.5, B 70, C-4 12.5
Protocol: as §1, §2, §3, §4, §5, §6, §7, §8, §9, §10, §11, §12

[4] = tested on: Setaria verticillata (SETVE); details: 7 DAT, stage 21-23, height 8-16 cm
Protocol: as §1, §2, §3, §4, §5, §6, §7, §8, §9, §10, §11, §12

[5] = tested on: Zea mays (ZEAMX); details: 7 DAT; stage 15-16, height 27-33 cm; g ai/ha A-1 18, B 90, C-4 12.5
Protocol: as §1, §2, §3, §4, §5, §6, §7, §8, §9, §10, §11, §12

[6] = 7 DAT, g ai/ha A-1 12.5, B 70, C-4 12.5
[7] = 42 DAT, g ai/ha A-1 12.5, B 70, C-4 12.5
[8] = 42 DAT, g ai/ha A-1 18, B 70, C-4 12.5
[9] = 42 DAT, g ai/ha A-1 18, B 90, C-4 12.5

SMILES | % Herbicidal activity [1, 6] [%] | % Herbicidal activity [1, 7] [%] | % Herbicidal activity [1, 8] [%] | % Herbicidal activity [1, 9] [%] | % Herbicidal activity [2, 6] [%] | % Herbicidal activity ([2]; 7 DAT, g ai/ha A-1 18, B 70, C-4 12.5) [%] | % Herbicidal activity ([2]; 7 DAT, g ai/ha A-1 18, B 90, C-4 12.5) [%] | % Herbicidal activity ([2]; 21 DAT, g ai/ha A-1 12.5, B 70, C-4 12.5) [%] | % Herbicidal activity ([2]; 21 DAT, g ai/ha A-1 18, B 70, C-4 12.5) [%] | % Herbicidal activity ([2]; 21 DAT, g ai/ha A-1 18, B 90, C-4 12.5) [%] | % Herbicidal activity [2, 7] [%] | % Herbicidal activity [2, 8] [%] | % Herbicidal activity [2, 9] [%] | % Herbicidal activity [3] [%] | % Herbicidal activity ([4]; g ai/ha A-1 18, B 90, C-4 12.5) [%] | % Herbicidal activity [5] [%] | % Herbicidal activity ([2]; 7 DAT, g ai/ha A-1 18, B 70, C-8 840) [%] | % Herbicidal activity ([2]; 7 DAT, g ai/ha A-1 18, B 90, C-8 840) [%] | % Herbicidal activity ([4]; g ai/ha A-1 18, B 70, C-8 840) [%] | % Herbicidal activity ([4]; g ai/ha A-1 18, B 90, C-8 840) [%]
C#CCN1C(=O)C(F)(F)Oc2cc(F)c(-n3c(=O)n(C)c(=S)n(C)c3=O)cc21 [C-4, trifludimoxazin] | 80 | 80 | 80 | 80 | 30 | 30 | 30 | 30 | 30 | 30 | 20 | 20 | 20 | 75 | 40 | 40 | – | – | – | –
CC(C)N.O=C(O)CNCP(=O)(O)O [C-8, glyphosate-isopropylammonium] | – | – | – | – | – | – | – | – | – | – | – | – | – | – | – | – | 85 | 85 | 75 | 75
